These results are taken from patent publication US12637469B2, “1H-pyrazole derivative and application thereof as dual target inhibitor of Syk and VEGFR2” (Ocumension Therapeutics (Suzhou) Co., Ltd., priority 2020, dated 2026).

As usually defined, the IC50 is the concentration that inhibits the measured activity by half. Read a low IC50 as inhibition by little substance.

In data set [1] the target is T1, FAK(h) (Homo sapiens, UniProt Q05397).
T1 construct: purchased Eurofins (KinaseProfiler service)
Description: Eurofins KinaseProfiler off-target kinase inhibition. The data set is classed as biochemical. On the procedure: (§1) In order to investigate the specificity of the inhibition of the target by the compound, in this study, the activity and selectivity of test compound 1 on the off-target kinases in related pathways were tested on the Eurofins kinaseProfiler™ platform, and compound screening and analysis were conducted using IC50 value as the indicator.
(§2) Compound 1 was detected for each selected kinase using the standard Eurofins Kinase Profiler™ protocol, which followed the relevant standard operating procedures. The IC50 values of the inhibitory activity of the test compound 1 on 67 kinases including Abl(h), B-Raf(h), BTK(h) and JAK(h) were analyzed.

Data set [2] deals with T2, Tie2(h) (Homo sapiens, UniProt Q02763).
T2 construct: purchased Eurofins (KinaseProfiler platform)
The description is as above. The data set is classed as biochemical. On the procedure: as §1, §2

For data set [3], the target named is T3, Abl(h) (Homo sapiens, UniProt P00519).
T3 construct: purchased Eurofins (KinaseProfiler platform)
Described as above. The data set is classed as biochemical. The method, then: as §1, §2

In data set [4] the target is T4, Rse(h) (Homo sapiens, UniProt Q06418).
T4 construct: purchased Eurofins (KinaseProfiler platform)
Described as above. The format is biochemical. The method, then: as §1, §2

In data set [5] the target is T5, ROCK-II(h) (Homo sapiens, UniProt O75116).
T5 construct: purchased Eurofins (KinaseProfiler platform)
The data set is described as above. The format is biochemical. The method, then: as §1, §2

For data set [6], the target named is T6, BTK(h) (Homo sapiens, UniProt Q06187).
T6 construct: purchased Eurofins (KinaseProfiler platform)
The data set is described as above. The data set is classed as biochemical. On the procedure:
as §1, §2

The target of data set [7] is T7, CHK1(h) (Homo sapiens, UniProt O14757).
T7 construct: purchased Eurofins (KinaseProfiler platform)
The data set is described as above. The format is biochemical. On the procedure: as §1, §2

For data set [8], the target named is T8, FGFR1(h) (Homo sapiens, UniProt P11362).
T8 construct: purchased Eurofins (KinaseProfiler platform)
The description is as above. The data set is classed as biochemical. On the procedure:
as §1, §2

The target in data set [9] is T9, JNK2α2(h) (Homo sapiens, UniProt P45984).
T9 construct: purchased Eurofins (KinaseProfiler service)
Described as above. The format is biochemical. The method, then: as §1, §2

In data set [10] the target is T10, JAK1(h) (Homo sapiens, UniProt P23458).
T10 construct: purchased Eurofins (KinaseProfiler service)
The description is as above. The format is biochemical. The method, then: as §1, §2

The target of data set [11] is T11, Ros(h) (Homo sapiens, UniProt P08922).
T11 construct: purchased Eurofins (KinaseProfiler platform)
Described as above. The format is biochemical. The method, then:
as §1, §2

The target in data set [12] is T12, JAK3(h) (Homo sapiens, UniProt P52333).
T12 construct: purchased Eurofins (KinaseProfiler service)
The data set is described as above. The data set is classed as biochemical. On the procedure:
as §1, §2

Data set [13] in a line: Pharmacokinetic evaluation of ocular administration to mouse (cornea and plasma exposure). The format is in vivo, C57BL/6 mice. The conditions noted are these: eye drop, 0.1 mg/animal. On the procedure:
In order to investigate the eye-to-blood ratio of the in vivo exposure amounts of the compound after ocular administration thereof, LC-MS/MS method was used in this study to determine the exposure amounts of compound 1 in cornea and plasma after the ocular administration of the compound 1 to a mouse, where compound screening and analysis were conducted by using the drug concentration at the same time point as an indicator.
C57BL/6 mice, weighing 18-20 g, were randomly divided into 4 groups after 3-5 days of acclimatization, with each group including three mice, and the mice were administered by eye drops at 5 μL for each eye.
The test animals (C57BL/6 mice) were not fasted before administration, but drank water freely before and during the experiment.
About 0.05 mL of blood was collected from saphenous vein at 1 hour and 3 hours following the eye drop administration, anticoagulated with commercial EDTA-K2, and transferred to a centrifuge for centrifugation. After blood sampling from saphenous vein, the corneas were collected under isoflurane anesthesia. At each of the time points, the plasma and corneas of the mice in the same group were pooled for detection.
Plasma: within 30 minutes the plasma was transferred to be subject to centrifugation at 4° C., 3200 g for 10 minutes, and 20 μL of plasma was taken from each mouse. At each time point, the plasma of the mice in the same group was pooled for detection.
Cornea: the cornea was removed, rinsed twice with pre-cooled normal saline, dried with a paper towel, and put into a 1.5 mL centrifuge tube, weighed with an analytical balance by a peeling method, and finally the body weight was weighed. At each time point, the corneas of the mice in the same group were pooled for detection.
Corneal homogenization method: 1 g of cornea was added to 9 mL of pre-cooled methanol: 15 mM phosphate buffer solution=1:2, an ultrasonic cell disruptor (No. 2 amplitude rod, amplitude 50%, working for 5 s, stopping for 5 s, and ultrasonic treatment for 3 min) was used.

The target in data set [14] is T13, CYP3A4 (Homo sapiens, UniProt P08684).
T13 construct: human liver microsome working solution was prepared; from tissue; host or cells: human liver microsomes
Kind of data set: Inhibition of cytochrome P450 enzymes in human liver microsomes (LC-MS/MS). The data set is classed as in vitro ADME. On the procedure:
(§3) In order to investigate the activity of the compound on human liver microsomal CYP450 enzyme, Liquid Chromatography-Mass Spectrometry/Mass Spectrometry (LC-MS/MS) method was used in this study to determine the inhibitory effect of compound 1 on five main subtypes (CYP1A2, 2C9, 2C19, 2D6, 3A4) of human hepatocyte CYP450 enzyme, and compound screening and analysis were conducted using IC50 value as the indicator.
(§4) • 1) A test compound and a standard inhibitor working solution (100×) were prepared; • 2) microsomes were taken out of a −80° C. freezer, thawed on ice, labeled with the date, and put back in the freezer immediately after use; • 3) 20 microliters of matrix solution was added to the corresponding wells; • 4) 20 microliters of phosphate buffered saline was added to the blank wells; • 5) 2 microliters of the test compound and positive control working solution were added to the corresponding wells; • 6) 2 microliters of solvent was added to each of the inhibitor-free wells and the blank wells; • 7) human liver microsome working solution was prepared; • 8) 158 microliters of HLM working solution was added to all wells of the incubation plate; • 9) the plate was heated in a 37° C. water bath for about 10 minutes; • 10) NADPH cofactor solution was prepared; • 11) 20 microliters of NADPH cofactor was added to all of the incubation wells; • 12) all CYPs were subjected to mixed culture in a 37° C. water bath for 10 minutes; • 13) at a certain point in time, the reaction was stopped by adding 400 microliters of cold solution (200 ng/mL of tolbutamide in acetonitrile and 200 ng/mL of Labetalol in acetonitrile); • 14) the samples were centrifuged at 4000 rpm for 20 minutes to precipitate proteins; • 15) 200 microliters of supernatant was transferred into 100 microliters of high performance liquid chromatography water, and shaked for 10 minutes; • 16) LC/MS/MS analysis was started.
(Liver microsomes are a subcellular fraction often used to study metabolism.)

The target of data set [15] is T14, CYP2D6 (Homo sapiens, UniProt P10635).
T14 construct: human liver microsome working solution was prepared; from tissue; host or cells: human liver microsomes
Described as above. The data set is classed as in vitro ADME. On the procedure:
as §3, §4

Data set [16] addresses T15, CYP1A2 (Homo sapiens, UniProt P05177).
T15 construct: human liver microsome working solution was prepared; from tissue; host or cells: human liver microsomes
The data set is described as above. The format is in vitro ADME. On the procedure: as §3, §4

In data set [17] the target is T16, CYP2C9 (Homo sapiens, UniProt P11712).
T16 construct: human liver microsome working solution was prepared; from tissue; host or cells: human liver microsomes
The data set is described as above. The data set is classed as in vitro ADME. The method, then: as §3, §4

T4 sequence (Q06418 41-890): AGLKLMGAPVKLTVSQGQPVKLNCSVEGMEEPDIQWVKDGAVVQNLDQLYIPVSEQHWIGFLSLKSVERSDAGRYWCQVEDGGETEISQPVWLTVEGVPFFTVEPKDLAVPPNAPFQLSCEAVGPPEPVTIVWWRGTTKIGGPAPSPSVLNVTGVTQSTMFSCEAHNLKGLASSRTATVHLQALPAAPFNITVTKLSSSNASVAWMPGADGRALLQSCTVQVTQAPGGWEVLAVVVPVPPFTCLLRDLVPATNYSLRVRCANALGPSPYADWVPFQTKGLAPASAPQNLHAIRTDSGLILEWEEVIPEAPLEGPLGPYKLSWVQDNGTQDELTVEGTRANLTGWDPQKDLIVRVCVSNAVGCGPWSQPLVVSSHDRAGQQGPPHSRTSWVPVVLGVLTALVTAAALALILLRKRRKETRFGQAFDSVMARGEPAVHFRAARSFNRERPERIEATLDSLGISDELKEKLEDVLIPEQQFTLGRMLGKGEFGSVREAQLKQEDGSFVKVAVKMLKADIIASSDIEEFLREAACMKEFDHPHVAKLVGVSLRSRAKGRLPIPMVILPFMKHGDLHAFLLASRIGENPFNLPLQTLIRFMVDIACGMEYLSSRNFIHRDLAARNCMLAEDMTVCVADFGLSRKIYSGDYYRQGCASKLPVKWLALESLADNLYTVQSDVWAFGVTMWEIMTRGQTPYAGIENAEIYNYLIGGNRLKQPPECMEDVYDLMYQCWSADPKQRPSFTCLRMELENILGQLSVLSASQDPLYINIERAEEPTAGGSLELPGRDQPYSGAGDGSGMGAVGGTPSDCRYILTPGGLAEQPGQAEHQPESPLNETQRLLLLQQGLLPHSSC
T16 sequence (P11712 whole entry): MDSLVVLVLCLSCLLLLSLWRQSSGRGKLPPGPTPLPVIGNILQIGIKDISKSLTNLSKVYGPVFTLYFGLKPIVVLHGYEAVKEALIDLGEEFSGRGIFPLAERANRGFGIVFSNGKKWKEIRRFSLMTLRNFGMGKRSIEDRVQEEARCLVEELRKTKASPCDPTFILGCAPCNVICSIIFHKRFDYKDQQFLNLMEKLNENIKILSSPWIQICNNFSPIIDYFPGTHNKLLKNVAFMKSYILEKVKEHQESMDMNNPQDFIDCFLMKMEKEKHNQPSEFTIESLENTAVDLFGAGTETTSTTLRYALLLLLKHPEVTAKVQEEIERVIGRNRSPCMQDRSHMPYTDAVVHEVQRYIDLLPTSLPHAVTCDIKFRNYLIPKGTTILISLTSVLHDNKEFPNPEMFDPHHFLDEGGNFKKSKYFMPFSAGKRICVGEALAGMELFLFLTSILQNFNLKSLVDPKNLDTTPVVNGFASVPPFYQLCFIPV
T13 sequence (P08684 whole entry): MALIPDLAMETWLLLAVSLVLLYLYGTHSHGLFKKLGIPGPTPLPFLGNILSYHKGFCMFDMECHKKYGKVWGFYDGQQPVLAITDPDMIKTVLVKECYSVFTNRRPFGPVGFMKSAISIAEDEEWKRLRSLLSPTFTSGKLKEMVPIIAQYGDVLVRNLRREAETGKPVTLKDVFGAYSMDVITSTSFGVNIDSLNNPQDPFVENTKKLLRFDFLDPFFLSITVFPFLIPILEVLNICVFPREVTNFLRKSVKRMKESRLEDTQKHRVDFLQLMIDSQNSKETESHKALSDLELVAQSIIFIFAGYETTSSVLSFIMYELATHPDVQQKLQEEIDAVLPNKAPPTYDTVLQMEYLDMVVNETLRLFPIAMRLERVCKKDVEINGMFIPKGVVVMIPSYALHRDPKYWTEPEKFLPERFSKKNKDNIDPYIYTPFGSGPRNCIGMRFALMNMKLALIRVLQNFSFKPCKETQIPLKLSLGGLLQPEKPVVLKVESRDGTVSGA
T11 sequence (P08922 28-2347): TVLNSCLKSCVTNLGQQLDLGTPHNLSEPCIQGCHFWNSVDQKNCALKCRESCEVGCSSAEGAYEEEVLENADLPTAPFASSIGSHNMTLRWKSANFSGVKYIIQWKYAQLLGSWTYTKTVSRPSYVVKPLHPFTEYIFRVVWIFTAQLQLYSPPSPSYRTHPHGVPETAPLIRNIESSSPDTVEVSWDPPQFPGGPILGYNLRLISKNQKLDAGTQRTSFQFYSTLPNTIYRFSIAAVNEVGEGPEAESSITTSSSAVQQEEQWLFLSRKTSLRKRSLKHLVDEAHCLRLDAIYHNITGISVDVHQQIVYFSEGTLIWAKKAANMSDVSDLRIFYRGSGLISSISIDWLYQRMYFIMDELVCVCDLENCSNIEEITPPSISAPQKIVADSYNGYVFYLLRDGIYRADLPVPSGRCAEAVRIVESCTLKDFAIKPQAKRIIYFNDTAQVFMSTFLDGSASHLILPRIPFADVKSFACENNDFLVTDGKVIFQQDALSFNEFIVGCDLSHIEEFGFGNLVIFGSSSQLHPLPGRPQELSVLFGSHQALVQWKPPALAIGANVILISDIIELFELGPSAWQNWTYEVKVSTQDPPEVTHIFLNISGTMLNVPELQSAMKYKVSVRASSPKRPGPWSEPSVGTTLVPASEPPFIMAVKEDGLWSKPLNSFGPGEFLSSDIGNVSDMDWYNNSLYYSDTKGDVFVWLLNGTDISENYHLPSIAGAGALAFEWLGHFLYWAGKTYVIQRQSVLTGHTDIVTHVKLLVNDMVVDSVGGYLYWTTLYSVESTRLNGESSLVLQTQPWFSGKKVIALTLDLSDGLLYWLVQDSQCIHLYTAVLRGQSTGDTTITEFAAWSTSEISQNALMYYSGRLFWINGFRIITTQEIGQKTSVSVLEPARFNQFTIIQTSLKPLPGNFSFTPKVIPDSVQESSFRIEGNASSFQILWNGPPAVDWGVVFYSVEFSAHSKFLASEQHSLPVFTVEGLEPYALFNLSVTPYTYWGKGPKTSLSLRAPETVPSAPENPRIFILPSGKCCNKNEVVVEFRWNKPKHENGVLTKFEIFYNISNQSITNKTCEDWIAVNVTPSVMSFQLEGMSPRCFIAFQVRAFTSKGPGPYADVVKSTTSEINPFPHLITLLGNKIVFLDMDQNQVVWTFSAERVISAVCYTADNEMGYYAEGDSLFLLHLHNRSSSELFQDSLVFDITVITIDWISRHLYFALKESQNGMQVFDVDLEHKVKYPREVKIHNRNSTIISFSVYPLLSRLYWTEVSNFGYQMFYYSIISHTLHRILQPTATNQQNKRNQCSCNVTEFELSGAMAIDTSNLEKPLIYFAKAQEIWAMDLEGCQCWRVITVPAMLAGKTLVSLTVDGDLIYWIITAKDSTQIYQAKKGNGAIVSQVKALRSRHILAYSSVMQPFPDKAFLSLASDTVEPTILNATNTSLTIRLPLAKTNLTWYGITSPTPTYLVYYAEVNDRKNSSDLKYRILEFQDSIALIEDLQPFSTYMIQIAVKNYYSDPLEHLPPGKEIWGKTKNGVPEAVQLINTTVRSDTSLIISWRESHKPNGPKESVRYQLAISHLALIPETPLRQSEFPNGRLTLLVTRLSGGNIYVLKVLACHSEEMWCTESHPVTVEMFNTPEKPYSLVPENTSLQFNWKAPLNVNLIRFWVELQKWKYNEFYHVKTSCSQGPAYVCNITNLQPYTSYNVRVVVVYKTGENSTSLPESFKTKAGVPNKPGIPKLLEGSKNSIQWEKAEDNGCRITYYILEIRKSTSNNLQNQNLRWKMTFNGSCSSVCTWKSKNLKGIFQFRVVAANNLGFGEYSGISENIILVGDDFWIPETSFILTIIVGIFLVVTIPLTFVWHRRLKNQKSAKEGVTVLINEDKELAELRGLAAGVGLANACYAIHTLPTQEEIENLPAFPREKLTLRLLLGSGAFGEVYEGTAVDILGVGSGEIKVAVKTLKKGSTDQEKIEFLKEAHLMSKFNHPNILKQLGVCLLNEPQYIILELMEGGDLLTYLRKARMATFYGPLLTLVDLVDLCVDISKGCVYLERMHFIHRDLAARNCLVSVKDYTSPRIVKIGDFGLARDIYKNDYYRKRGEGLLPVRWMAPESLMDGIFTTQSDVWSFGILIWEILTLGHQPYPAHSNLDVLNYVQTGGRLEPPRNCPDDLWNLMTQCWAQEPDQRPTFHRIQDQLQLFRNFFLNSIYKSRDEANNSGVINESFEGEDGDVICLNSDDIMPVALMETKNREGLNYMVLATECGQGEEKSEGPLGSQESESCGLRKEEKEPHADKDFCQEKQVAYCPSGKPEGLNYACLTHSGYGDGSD
T9 sequence (P45984 whole entry): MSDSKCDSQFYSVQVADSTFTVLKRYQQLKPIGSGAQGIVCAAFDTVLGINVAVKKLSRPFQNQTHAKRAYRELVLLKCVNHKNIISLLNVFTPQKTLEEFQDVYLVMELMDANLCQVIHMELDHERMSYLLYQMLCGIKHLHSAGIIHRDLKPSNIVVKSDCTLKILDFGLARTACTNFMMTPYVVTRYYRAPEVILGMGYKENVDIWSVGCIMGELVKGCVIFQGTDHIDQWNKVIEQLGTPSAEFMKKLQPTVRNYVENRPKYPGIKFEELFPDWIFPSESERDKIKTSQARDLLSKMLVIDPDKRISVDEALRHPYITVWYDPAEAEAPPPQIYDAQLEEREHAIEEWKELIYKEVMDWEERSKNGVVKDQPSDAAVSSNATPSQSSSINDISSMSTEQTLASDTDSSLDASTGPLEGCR
T14 sequence (P10635 whole entry): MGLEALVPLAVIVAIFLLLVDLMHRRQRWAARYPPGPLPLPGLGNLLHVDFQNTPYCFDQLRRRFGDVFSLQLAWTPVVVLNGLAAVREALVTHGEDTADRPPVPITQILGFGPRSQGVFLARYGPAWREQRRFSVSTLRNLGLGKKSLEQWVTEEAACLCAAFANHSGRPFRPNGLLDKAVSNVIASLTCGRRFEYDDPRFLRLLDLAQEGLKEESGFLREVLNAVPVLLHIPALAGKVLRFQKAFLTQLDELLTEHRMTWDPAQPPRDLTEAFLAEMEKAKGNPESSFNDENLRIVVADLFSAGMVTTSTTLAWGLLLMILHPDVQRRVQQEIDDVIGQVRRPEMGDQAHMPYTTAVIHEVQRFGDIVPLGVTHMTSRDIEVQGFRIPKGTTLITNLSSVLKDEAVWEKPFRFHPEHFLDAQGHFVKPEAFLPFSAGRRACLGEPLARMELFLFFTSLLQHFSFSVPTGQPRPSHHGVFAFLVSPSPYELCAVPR

In the case of `c1cn2c(n1)c(Nc1ccc(N3CCOCC3)cc1)nc1ccc(-c3cn[nH]c3)cc12` [Compound 1], the IC50 was 469 nM in [1]; 2060 nM in data set [2]; 152 nM in data set [3]; greater than 10000 nM in data set [4]; 499 nM in data set [5]; 1040 nM in [6]. For the same compound, the IC50 in [7] was greater than 10000 nM; in [8] it was 847 nM; in data set [9] it was greater than 10000 nM; in data set [10], 663 nM; in data set [11], greater than 10000 nM; in data set [12], 550 nM. Besides, the IC50 in data set [14] is greater than 50 nM; in data set [15], greater than 50 µM; in data set [16], greater than 50 nM; in data set [17], greater than 50 nM. For the same compound, the Kp at 1 h in data set [13] (C57BL/6, cornea / plasma, other: eye drops (ocular administration), 1 hour, read-out: eye-to-blood ratio) was 641. For the same compound, the Kp at 3 h in data set [13] (C57BL/6, cornea / plasma, other: eye drops (ocular administration), 3 hours, read-out: eye-to-blood ratio) is 427. For the same compound, the concentration at 1 h in data set [13] (C57BL/6, plasma, other: eye drops (ocular administration), 1 hour, read-out: Drug concentration in plasma) is 10.4 nM. For the same compound, in data set [13] (C57BL/6, plasma, other: eye drops (ocular administration), 3 hours, read-out: Drug concentration in plasma), the concentration at 3 h was 6.8 nM. The “Drug concentration in corneal” value in [13] (1 hour) was 6670 nmol/kg; in data set [13] (3 hours) it was 2910 nmol/kg.
